Experiment: Membrane fatty acid analysis in red blood cells (GC-MS) of UC patients given EPA-FFA
Assay type: in vivo, human
Procedure: A study will be conducted with patients having long-standing UC. Specifically, about 20 long-standing UC patients in stable clinical remission (SCCAI=0) and with fecal calprotectin (FC)>150 μg/g measured in stools are recruited and treated with 2 g/day of EPA-FFA for 90 days. Biopsies and biological samples are collected at the entry (TO) and at the end of the study (T3). Compliance is evaluated by EPA incorporation into red blood cell membranes. Protein levels of Jagged1, Hes1, STAT3, phospho-STAT3 and KLF-4 are determined by western blotting. IL-22, IL-10 and SOCS3 mRNA levels are analyzed by qRT-PCR. Goblet cells are stained by Alcian blue. Microbiota analyses are performed on fecal and biopsies DNA samples sequencing the V3-V4 region of the bacterial 16S rRNA gene. As a reference, a healthy adult population is used. Endoscopic and histologic disease activities are measured by Mayo and Geboes scores respectively.
Since EPA can be converted into the m-3 PUFA docosahexaenoic acid (DHA) in vivo through docosapentaenoic acid (DPA) (19), the overall ω-3 PUFAs content is also measured including EPA, DPA and DHA, in the patients.
Eligible patients are asymptomatic subjects aged 18-70 years with long-standing (≥8 years) UC, in stable clinical remission (simple clinical colitis activity index; SCCAI=0), and FC levels higher than 150 μg/g (53). Exclusion criteria are (1) recent use of steroids (<2 months) or other experimental drugs (<3 months); (2) concomitant use of anticoagulants; (3) probiotic use; (4) pregnancy or breast-feeding; (5) known or suspected hypersensitivity to eicosapentaenoic acid or ω-3 PUF As; and (6) severe co-morbidities. […] Adherence to EPA-FFA supplementation is evaluated both by capsule counting and assessing EPA incorporation into red blood cell (RBC) membranes. […]
Membrane fatty acids content is measured in RBCs. […] Extracted fatty acid methyl-esters are then analyzed by gas-chromatography mass-spectrometry (GC-MS). Fatty acid levels are expressed as relative percentages of total fatty acids.

[1] = short-term EPA-FFA supplementation, long-standing UC patients

CC/C=C\C/C=C\C/C=C\C/C=C\C/C=C\CCCC(=O)O [EPA-FFA, eicosapentaenoic acid]
EPA in RBC-purified membranes (UC patients, 2 g/day EPA-FFA for 90 days): significant increase | EPA and overall ω-3 PUFAs content (EPA, DPA and DHA) into RBCs [1]: increase | patients who incorporated EPA into RBCs [1]: 17/19

From US20250319052A1, “TREATMENT WITH HIGHLY PURIFIED EICOSAPENT AENOIC ACID AS FREE FATTY ACID IMPROVES INFLAMMATION, AFFECTS COLONIC DIFFERENTIATION MARKERS AND MICROBIOTA IN PATIENTS WITH ULCERATIVE COLITIS” (KD SWISS GMBH, priority 2019, published 2025)
